Results as given in the supplement of paper PMC4858399.
Where a name gives a salt, the structure may show the parent alone.

Columns and labels:
Conditions in all cases: exposure time 48 h
[1] = system: Caenorhabditis elegans N2; experiment: lowest effective concentration for larval growth inhibition (size below effect threshold); higher = less potent
Procedure, shortened: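 In 96-well plates, 50 C. elegans N2 L1 larvae per well were cultured at 20°C for 48 h in K-medium with killed bacteria and 1% DMSO, plus the chemical at 0.5, 1, 5, 10, 50, 100 or 200 µM. Size was measured as per-worm extinction on a Biosort and log-transformed into well means. Taking the first dose where the plate-adjusted mean size sits under 5.665 and stays there at higher doses gives the lowest effective concentration.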

[2] = system: Caenorhabditis elegans N2; experiment: AC50 for larval growth inhibition (Hill fit); higher = less potent
Procedure, shortened: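 AC50 values come from a constrained Hill fit by weighted genetic-algorithm regression and are censored when out of range. The fit used only wells with at least 10 worms. Each well of a 96-well plate held 50 synchronised C. elegans N2 L1 larvae in K-medium with killed OP50, 1% DMSO and 0.5–200 µM chemical for 48 h at 20°C. A COPAS Biosort recorded each worm's size as extinction, which was log-transformed and averaged per well.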

[3] = system: Caenorhabditis elegans N2; experiment: mean nematode size ln(EXT) after 48 h, plate-adjusted (DMSO control set to 6) (ln(EXT), control-adjusted); higher = larger nematodes / less growth inhibition
Procedure, shortened: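 Chemical at 0.5–200 µM was tested on synchronised C. elegans N2 L1 larvae grown for 48 h at 20°C in K-medium with killed OP50 and 1% DMSO. Per-worm Biosort extinction, cleared of debris by a growth model, was natural-logged and averaged per well to give mean size. Plates were normalised by subtracting the vehicle control mean and adding 6.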

SMILES	lowest effective concentration [1] [µM]	AC50 for larval growth inhibition [2] [µM]	mean nematode size ln(EXT) (ln) ([3]; 0.5 µM)	mean nematode size ln(EXT) (ln) ([3]; 1 µM)	mean nematode size ln(EXT) (ln) ([3]; 5 µM)	mean nematode size ln(EXT) (ln) ([3]; 10 µM)	mean nematode size ln(EXT) (ln) ([3]; 50 µM)	mean nematode size ln(EXT) (ln) ([3]; 100 µM)	mean nematode size ln(EXT) (ln) ([3]; 200 µM)
CC(C1CC1)C(O)(Cn1cncn1)c1ccc(Cl)cc1 (stereo not drawn) [Cyproconazole]	200	> 200	5.92	5.92	5.85	5.99	6.17	6.33	5.59
Cc1cc(C2CC2)nc(Nc2ccccc2)n1 [Cyprodinil]	50	132	5.93	5.88	5.96	5.86	5.32	5.01	4
Nc1ccn([C@@H]2O[C@H](CO)[C@@H](O)[C@@H]2O)c(=O)n1 [Cytarabine HCl]	200	> 200	5.96	5.87	5.95	6	5.89	6.03	5.47
OC[C@@H](O)[C@@H](O)[C@H](O)[C@H](O)CO [D-Mannitol]	200	> 200	5.94	5.89	5.93	5.96	5.93	5.94	5.42
CN(C)NC(=O)CCC(=O)O [Daminozide]	200	> 200	6.43	6.07	6.34	6.17	6	6.01	5.44
CC(C)(C)c1cc(/C=C2\SC(=N)NC2=O)cc(C(C)(C)C)c1O [Darbufelone mesylate]	≤ 0.5	31.2	5.59	5.62	5.03	5.48	4.17	4.18	3.87
CCCCCCCCCC(=O)O [Decanoic acid]	200	> 200	5.89	5.86	5.85	5.87	5.85	5.68	5.66
CCCCC(CC)COC(=O)CCCCC(=O)OCC(CC)CCCC (stereo not drawn) [Di(2-ethylhexyl)adipate]	200	> 200	5.87	5.8	5.73	5.76	5.75	5.82	5.55
CC(C)(C)OOC(C)(C)C [Di-tert-butyl peroxide]	200	> 200	5.88	5.88	5.96	5.83	5.59	5.79	5.31
C=CCOC(=O)c1ccccc1C(=O)OCC=C [Diallyl phthalate]	200	> 200	5.88	5.92	5.94	5.96	5.88	5.84	5.65
CCOP(=S)(OCC)Oc1cc(C)nc(C(C)C)n1 [Diazinon]	50	70.9	5.98	5.94	5.84	5.86	5.33	4.12	3.6
c1ccc2c(c1)oc1ccccc12 [Dibenzofuran]	50	126	5.88	5.9	5.93	5.87	5.61	5.1	3.65
CCCCOC(=O)CCCCC(=O)OCCCC [Dibutyl hexanedioate]	50	58.5	5.86	5.83	5.8	5.76	5.27	3.38	3.38
CCCCOC(=O)c1ccccc1C(=O)OCCCC [Dibutyl phthalate]	50	20.9	6.09	6.09	5.61	5.99	4.67	5.62	5.42
CCCCOC(=O)CCCCCCCCC(=O)OCCCC [Dibutyl sebacate]	50	27	5.85	5.87	5.86	5.68	5.05	5.15	4.79
N#Cc1c(Cl)cccc1Cl [Dichlobenil]	200	> 200	5.93	5.79	6.11	5.95	5.9	6.01	5.54
Nc1c(Cl)cc([N+](=O)[O-])cc1Cl [Dichloran]	50	14.4	6.01	5.9	5.93	5.73	4.94	4.92	4.96
CC(Oc1ccc(Cl)cc1Cl)C(=O)O (stereo not drawn) [Dichlorprop]	200	106	5.91	5.93	5.86	6.06	6.04	5.88	5.44
COP(=O)(OC)OC=C(Cl)Cl [Dichlorvos]	50	80.4	6.07	6.12	5.84	5.87	5.05	4.4	3.3
COC(=O)C(C)Oc1ccc(Oc2ccc(Cl)cc2Cl)cc1 (stereo not drawn) [Diclofop-methyl]	50	> 200	6.06	6.74	6	5.92	5.56	5.39	4.62
OC(c1ccc(Cl)cc1)(c1ccc(Cl)cc1)C(Cl)(Cl)Cl [Dicofol]	≤ 0.5	10.8	5.64	5.63	5.3	4.39	3.83	3.61	3.35
CC(C)(OOC(C)(C)c1ccccc1)c1ccccc1 [Dicumyl peroxide’-(Dioxydipropane-2,2-diyl)dibenzene)]	50	> 200	5.83	5.8	5.83	5.82	5.62	5.38	5.45
C1CCC(SSC2CCCCC2)CC1 [Dicyclohexyl disulfide]	50	> 200	5.76	5.82	5.78	5.74	5.65	5.62	5.44
CCCCCCCCCC[N+](C)(C)CCCCCCCCCC [Didecyl dimethyl ammonium chloride]	10	17	5.9	5.91	5.88	5.51	3.71	3.63	3.62

SMILES	lowest effective concentration [1] [µM]	AC50 for larval growth inhibition [2] [µM]	mean nematode size ln(EXT) (ln) ([3]; 0.5 µM)	mean nematode size ln(EXT) (ln) ([3]; 1 µM)	mean nematode size ln(EXT) (ln) ([3]; 5 µM)	mean nematode size ln(EXT) (ln) ([3]; 10 µM)	mean nematode size ln(EXT) (ln) ([3]; 50 µM)	mean nematode size ln(EXT) (ln) ([3]; 100 µM)	mean nematode size ln(EXT) (ln) ([3]; 200 µM)
ClC1=C(Cl)[C@]2(Cl)[C@@H]3[C@@H]4C[C@@H]([C@H]5O[C@@H]45)[C@@H]3[C@@]1(Cl)C2(Cl)Cl [Dieldrin]	5	171	5.78	5.82	5.39	5.26	5.12	5.07	4.21
CCOS(=O)(=O)OCC [Diethyl sulfate]	100	55	5.87	5.85	5.83	5.88	5.88	4.98	5.42
CC/C(=C(/CC)c1ccc(O)cc1)c1ccc(O)cc1 [Diethylstilbestrol (DES)]	200	87	6	6	5.97	5.96	5.99	5.73	5.61
CC1COC(Cn2cncn2)(c2ccc(Oc3ccc(Cl)cc3)cc2Cl)O1 (stereo not drawn) [Difenoconazole]	5	1.84	4.06	5.79	3.52	5.15	3.59	3.58	3.51
CCCCCCOC(=O)c1ccccc1C(=O)OCCCCCC [Dihexyl phthalate]	200	> 200	5.8	5.83	5.89	5.83	5.81	5.73	5.5
CC(C)COC(=O)CCCCC(=O)OCC(C)C [Diisobutyl adipate]	100	53.6	5.93	5.89	5.73	5.85	5.74	4.35	5.38
CC(C)COC(=O)c1ccccc1C(=O)OCC(C)C [Diisobutyl phthalate]	100	96.3	5.93	5.94	5.9	5.95	6.12	5.58	5.43
CC(C)CCCCCCCOC(=O)CCCCC(=O)OCCCCCCCC(C)C [Diisodecyl adipate]	200	> 200	5.86	5.91	5.83	5.89	5.89	5.89	5.53
CC(C)CCCCCCCOC(=O)c1ccccc1C(=O)OCCCCCCCC(C)C [Diisodecyl phthalate]	200	> 200	5.44	5.55	5.58	5.72	5.68	5.67	5.66
COc1ccc(C(=CC(=O)N2CCOCC2)c2ccc(Cl)cc2)cc1OC [Dimethomorph]	100	117	6	5.98	6.05	6.03	5.92	5.54	4.95
COC(=O)CCCCC(=O)OC [Dimethyl adipate]	200	> 200	5.82	5.88	5.81	5.79	5.85	5.85	5.65
COS(=O)(=O)OC [Dimethyl sulfate]	100	61.5	5.83	5.97	6.03	5.92	5.98	5.28	5.61
COC(=O)c1ccc(C(=O)OC)cc1 [Dimethyl terephthalate]	200	> 200	5.9	5.9	5.87	5.83	5.81	5.83	5.09
CC(C)(C)C(O)/C(=C/c1ccc(Cl)cc1Cl)n1cncn1 (stereo not drawn) [Diniconazole]	10	38.3	5.97	5.84	5.68	5.59	4.97	3.98	4.28
CCC(C)c1cc([N+](=O)[O-])cc([N+](=O)[O-])c1O (stereo not drawn) [Dinoseb]	100	> 200	6.02	5.96	5.94	5.91	5.82	5.56	5.04
CN(C)CCOC(c1ccccc1)c1ccccc1 [Diphenhydramine hydrochloride]	200	> 200	5.87	5.9	5.91	5.91	5.78	5.78	5.39
c1ccc(Nc2ccccc2)cc1 [Diphenylamine]	10	7.4	5.86	5.75	5.83	4.11	3.96	3.87	4.5
c1ccc2c(c1)Cc1ccccc1-2 [Diphenylenemethane]	50	39.2	6.07	6.06	6.03	5.92	4.4	4.02	3.5
CCN(CC)C(=S)SSC(=S)N(CC)CC [Disulfiram]	100	> 200	5.96	6	6.03	5.99	5.86	5.59	4.56
CCOP(=S)(OCC)SCCSCC [Disulfoton]	200	> 200	6.1	6.13	5.9	6.03	5.93	5.72	5.04
CSC(=O)c1c(C(F)F)nc(C(F)(F)F)c(C(=O)SC)c1CC(C)C [Dithiopyr]	10	66.4	6.12	6.03	6.04	5.65	4.72	4.61	3.44
O=C1c2c(O)cccc2Cc2cccc(O)c21 [Dithranol]	200	189	5.83	5.82	5.81	5.77	5.67	5.74	4.35
CN(C)C(=O)Nc1ccc(Cl)c(Cl)c1 [Diuron]	200	179	6.19	6.62	6.24	6.31	6.48	6.26	5.16
